Assay results taken from paper PMC4345494, “Cheaper faster drug development validated by the repositioning of drugs against neglected tropical diseases” (Journal of the Royal Society Interface, 2015).

Molecular target: P. vivax DHFR (dihydrofolate reductase) (Plasmodium vivax, UniProt O02604)
Assay: DHFR enzyme inhibition assay (supported by growth assay of yeast expressing PvDHFR)
Format: biochemical

P. vivax DHFR (dihydrofolate reductase), sequence (O02604 1-237): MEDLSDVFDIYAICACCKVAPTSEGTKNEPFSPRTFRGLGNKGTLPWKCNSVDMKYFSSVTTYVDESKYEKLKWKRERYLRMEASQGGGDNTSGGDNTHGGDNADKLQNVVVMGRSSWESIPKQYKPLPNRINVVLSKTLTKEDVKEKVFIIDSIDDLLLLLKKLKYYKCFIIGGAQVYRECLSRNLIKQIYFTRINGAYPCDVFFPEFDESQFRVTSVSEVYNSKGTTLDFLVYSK

Question: How did the IC50 turn out when CO[C@@H]1[C@H](OC(=O)NC(=O)CCl)CC[C@]2(CO2)[C@H]1[C@@]1(C)O[C@@H]1CC=C(C)C [TNP-470] was run?
Answer: 160 nM
